From ChEMBL document CHEMBL4425107, “Monothiocarbamates Strongly Inhibit Carbonic Anhydrases in Vitro and Possess Intraocular Pressure Lowering Activity in an Animal Model of Glaucoma” (J Med Chem, 2016)
Calls of active or inactive are those of the source. The calls are words filed in the database; no cut-off is given here.

Tests used:
[1] = target: Carbonic anhydrase 9 (Homo sapiens, UniProt Q16790); assay: Inhibition of human carbonic anhydrase 9 catalytic domain preincubated for 15 mins by CO2 hydration stopped-flow assay
[2] = target: Carbonic anhydrase 2 (Homo sapiens, UniProt P00918); assay: Inhibition of human carbonic anhydrase 2 preincubated for 15 mins by CO2 hydration stopped-flow assay
[3] = target: Carbonic anhydrase 1 (Homo sapiens, UniProt P00915); assay: Inhibition of human carbonic anhydrase 1 preincubated for 15 mins by CO2 hydration stopped-flow assay
Carbonic anhydrase 1, sequence (P00915 whole entry): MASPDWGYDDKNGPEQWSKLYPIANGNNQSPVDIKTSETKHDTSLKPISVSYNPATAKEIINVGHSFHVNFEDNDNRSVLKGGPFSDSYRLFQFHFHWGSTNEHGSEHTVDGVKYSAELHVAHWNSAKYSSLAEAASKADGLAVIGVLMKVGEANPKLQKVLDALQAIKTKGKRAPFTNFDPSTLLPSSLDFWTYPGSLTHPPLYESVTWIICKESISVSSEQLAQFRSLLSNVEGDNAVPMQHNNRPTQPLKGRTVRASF

[4] = tested on: Oryctolagus cuniculus; assay: Ocular hypotensive activity in sterile hypertonic saline injected hypertensive New Zealand white rabbit assessed as reduction in intraocular pressure at 1 % administered as eye drops up to 240 mins post injection; format: functional, organism-based

SMILES	Ki [1] [µM]	Ki [2] [µM]	Ki [3] [µM]	Activity [4]
CCOC(=O)CN(C)C(=O)S	0.0221	–	–	–
CCCCN(CCCC)C(=O)S	0.0068	> 2	–	–
O=C(S)N1CCOCC1	0.0135	> 2	–	–
CC(C)CN(CC(C)C)C(=O)S	0.0092	–	–	–
O=C(CN1CCN(C(=O)S)CC1)NC1CCCCC1	0.014	–	–	Active
O=C(S)N1CCN(c2cccc(Cl)c2)CC1	0.0049	> 2	–	–

Second part, led by results:

Ki [1] [µM]	Ki [2] [µM]	Ki [3] [µM]	SMILES	Activity [4]
0.0065	–	–	O=C(S)N1CCN(c2ccc(F)cc2)CC1	–
0.0152	–	–	COc1ccc(CCNC(=O)S)cc1OC	–
0.0117	> 2	> 2	CN(Cc1ccccc1)C(=O)S	–
0.0118	–	> 2	O=C(S)N1CCN(c2ccc(C(F)(F)F)cc2)CC1	–
0.0062	> 2	–	CCCCN(CC)C(=O)S	–
0.0077	–	> 2	CN1CCN(NC(=O)S)CC1	–
0.0215	–	> 2	O=C(S)NCCc1ccccc1	Active
0.0125	–	> 2	CCCN(CCC)C(=O)S	–
